Results reported in patent publication US9233932B2, “Oligomer-nitroimidazole anti-infective conjugates” (NEKTAR THERAPEUTICS, priority 2007, dated 2016).
Values after ≈ are worked out from the molar mass of the structure shown. Where two headings read alike, the source gives them in different places.

How the values were obtained:
[1] = test system: Giardia intestinalis Portland-1 (ATCC 30888); test: Minimum inhibitory concentration determination, micro-broth dilution, trophozoite motility; type: cell-based; settings: for Fold Difference (Parent vs. Derivative): MIC of derivative relative to metronidazole; for activity relative to parent metronidazole: qualitative statement on MIC results
Procedure: Briefly, minimum inhibitory concentration was evaluated in an anti-protozoal assay against a protozoan strain, Giardia intestinalis Portland-1 (ATCC 30888), isolated from human. The organism, also referred to as Giardia lamblia, causes infection in the small intestine.
The susceptibility of G. intestinalis to the test compounds was determined using the micro-broth dilution analysis. The protozoan strain was cultured according to the supplier's recommendations. Thirteen milliliters of growth media (TYI-S-33 supplemented with bile) was inoculated with 100 μL of G. intestinalis growing culture and incubated at 37° C. for 72 hours. Following incubation, each test compound was diluted (in growth medium) to two times the high test concentration then further diluted in 1:2 increments to yield 11 test concentrations. Each test concentration (100 μL) was added in triplicate to designated wells on the plate. Trophozoites were added to each well of a 96-well round bottom plate in a volume of 100 μL at a density of 40,000 per well. The plates were cultured for 24 hours in an anaerobic chamber to assure the presence of low oxygen level.
Following the treatment incubation, cultures were visually evaluated for trophozoite motility. At each concentration, data was recorded as positive or negative for motility.
Each test compound was dissolved in DMSO to a final concentration of 80 mM. […] The starting high test concentration was to be as high as possible.

Giardia intestinalis = test: In vitro antigiardial activity assay; type: cell-based
Procedure: Metronidazole (from two different sources) and samples prepared in accordance with Examples 1 and 2 were tested using conventional antimicrobial assay techniques for in vitro antigiardial activity at six concentrations with three-fold dilutions (10, 3.3, 1.1, 0.37, 0.122, 0.04 μg/mL). IC50 values (inhibition concentration) were determined.

[2] = lowest concentration completely inhibiting trophozoite motility, 24 hours, anaerobic chamber
[3] = average IC50 converted with MW, read-out: μM IC50
[4] = replicate 1, six concentrations, three-fold dilutions 10-0.04 μg/mL
[5] = replicate 2, six concentrations, three-fold dilutions 10-0.04 μg/mL
[6] = replicate 3, six concentrations, three-fold dilutions 10-0.04 μg/mL

Compound: COCCOCCOCCOCCOCCOCCOCCOCCOCCOCCOCCOC(=O)OCCn1c([N+](=O)[O-])cnc1C [mPEG11 metronidazole carbonate]
- Fold Difference (Parent vs. Derivative) [1]: 256
- MIC [1, 2]: 1000 µg/mL (≈ 1400 µM)
- activity relative to parent metronidazole [1]: reductions of activity

Compound: mPEG1k metronidazole carbonate
- Fold Difference (Parent vs. Derivative) [1]: >256
- MIC [1, 2]: >1000 µg/mL
- activity relative to parent metronidazole [1]: reductions of activity

Compound: Cc1ncc([N+](=O)[O-])n1CCO [Metronidazole, reference compound]
- IC50 (Giardia intestinalis; Giardia duodenalis, average IC50 converted with MW, read-out: μM IC50): 3.41 µM
- IC50 (Giardia intestinalis; Giardia duodenalis, average of IC50 1-3, read-out: Average IC50): 0.58 µg/mL
- IC50 (Giardia intestinalis; Giardia duodenalis, replicate 1, six concentrations, three-fold dilutions 10-0.04 μg/mL, read-out: IC50 1): 0.75 µg/mL
- IC50 (Giardia intestinalis; Giardia duodenalis, replicate 2, six concentrations, three-fold dilutions 10-0.04 μg/mL, read-out: IC50 2): 0.3 µg/mL
- IC50 (Giardia intestinalis; Giardia duodenalis, replicate 3, six concentrations, three-fold dilutions 10-0.04 μg/mL, read-out: IC50 3): 0.7 µg/mL
- IC50 (Giardia intestinalis; [3]): 3.96 µM
- Average IC50 (Giardia intestinalis; average of IC50 1-3): 0.68 µg/mL
- MIC ([1]; Giardia duodenalis, ATCC30888, Giardia intestinalis, read-out: MIC): 3.9 µg/mL (≈ 22.8 µM)
- MIC ([1]; Giardia duodenalis, ATCC30888, lowest concentration completely inhibiting trophozoite motility, 24 hours, anaerobic chamber, read-out: MIC): 3.9 µg/mL (≈ 22.8 µM)
- Fold Difference (Parent vs. Derivative) [1]: 1

Compound: COCCOCCOCCOCCOCCOCCOCCOC(=O)OCCn1c([N+](=O)[O-])cnc1C [PEG7 Metronidazole carbonate, mPEG7 metronidazole carbonate]
- IC50 (Giardia intestinalis; [3]): 7.51 µM
- Average IC50 (Giardia intestinalis; average of IC50 1-3): 4.03 µg/mL
- IC50 1 (Giardia intestinalis; [4]): 4.5 µg/mL (≈ 8.37 µM)
- IC50 2 (Giardia intestinalis; [5]): 4.2 µg/mL (≈ 7.81 µM)
- IC50 3 (Giardia intestinalis; [6]): 3.4 µg/mL (≈ 6.32 µM)

Compound: COCCOCCOCCOC(=O)OCCn1c([N+](=O)[O-])cnc1C [mPEG3 metronidazole carbonate]
- IC50 (Giardia intestinalis; [3]): 2.88 µM
- Average IC50 (Giardia intestinalis; average of IC50 1-3): 1.04 µg/mL
- IC50 1 (Giardia intestinalis; [4]): 0.82 µg/mL (≈ 2.27 µM)
- IC50 2 (Giardia intestinalis; [5]): 1.1 µg/mL (≈ 3.04 µM)
- IC50 3 (Giardia intestinalis; [6]): 1.2 µg/mL (≈ 3.32 µM)
- MIC ([1]; Giardia intestinalis): 7.8 µg/mL (≈ 21.6 µM)
- Fold Difference (Parent vs. Derivative) [1]: 2
- MIC [1, 2]: 7.8 µg/mL (≈ 21.6 µM)

Compound: mPEG21, metronidazole carbonate [mPEG21 metronidazole carbonate]
- Fold Difference (Parent vs. Derivative) [1]: 256
- MIC [1, 2]: 1000 µg/mL
- activity relative to parent metronidazole [1]: reductions of activity
